US20010044404A1, “Cleaning process and composition” (3M Innovative Properties Company, priority 1995, published 2001)

Key:
[1] = Ability to dissolve halogenated oils (miscibility); type: physicochemical; conditions: room temperature
Protocol: The ability of alkoxy-substituted perfluorocompounds to dissolve several halogenated oils was determined by adding a measured amount of oil to alkoxy-substituted perfluorocompound until the resulting mixture became turbid or phase-split. […] The results (shown in Table 12) indicate that alkoxy-substituted perfluorocompounds have very high ability to dissolve halogenated oils. Thus, the perfluorocompounds can be used as carrier solvents for halogenated oils in the deposition of coatings of such oils on substrate surfaces.

[2] = Pump oil removal with boiling mixed terpenes/perfluorocompound mixture; conditions: boiling mixture 40 volume % mixed terpenes, 60 volume % fluorinated component
Protocol: The above-described test coupon was dipped into DuoSeal Pump Oil (available from Sargent-Welch), was immersed in a boiling mixture of 40 volume % of a solvating agent comprising mixed terpenes having a boiling range of 243-274° C. and 60 volume % of alkoxy-substituted perfluorocompound (a cleaning composition of the invention), was cooled for 60 seconds, and was then immersed in mixture vapor for 30 seconds. The percent oil removal was determined in the above-described manner.

[3] = Pump oil removal with n-C6H14/perfluorocompound mixture at room temperature, ultrasonic; conditions: 40 volume % n-C6H14, 60 volume % fluorinated component, 60 seconds
Protocol: The above-described test coupon was dipped into DuoSeal Pump Oil (available from Sargent-Welch) and was then immersed in a mixture of 40 volume % n-C6H14 and 60 volume % alkoxy-substituted perfluorocompound (a cleaning composition of the invention) for 60 seconds at room temperature with ultrasonic agitation. The percent oil removal was determined in the above-described manner.

[4] = Fluorinated oil removal from aluminum coupon; conditions: Krytox 157FSM, room temperature
Protocol: Using essentially the same procedure as that described in Examples 8-10, the ability of the alkoxy-substituted perfluorocompounds to remove a fluorinated oil was evaluated. As in the previous Examples, a coupon was immersed in Krytox™ 157FSM perfluoropolyether oil having carboxylic acid end groups (available from DuPont), and the percent oil remaining after immersion in the solvent (at room temperature) was determined.

[5] = Stability in the presence of acid (96% sulfuric acid, GLC); type: physicochemical
Protocol: To assess hydrolytic stability under acidic conditions, C4F9OCH3 (15 g, 0.06 mole) was combined with sulfuric acid (10 g of 96% by weight, 0.097 mole) in a 50 mL flask containing a stir bar and fitted with a reflux condenser. The resulting mixture was stirred for 16 hours at room temperature, and then the resulting upper fluorochemical phase was separated from the resulting lower sulfuric acid phase. […] Chem. 49, 4007 (1984), which states that “[f]luorine atoms attached to carbon which also bears an alkyl ether group are known to be labile to electrophilic reagents. They are readily hydrolyzed in concentrated sulfuric acid, thus providing a route to some esters of fluoroacids.”

[6] = Perfluoropolyether oil removal in solvent vapor; conditions: Brayco 815Z; vapor over boiling liquid, 60 seconds
Protocol: The above-described aluminum coupon was dipped into Brayco 815Z perfluoropolyether oil (available from Castrol Inc., molecular weight of about 10,000) and then immersed in alkoxy-substituted perfluorocompound vapor (over the boiling liquid) for 60 seconds. The percent oil removal was determined in the above-described manner.

[7] = Solvency properties: largest normal hydrocarbon alkane soluble at 50 percent by volume
Protocol: A number of potential solvents were tested for their ability to dissolve hydrocarbons of increasing molecular weight according to the procedure described in U.S. Pat. No. 5,275,669 (Van Der Puy et al.), the description of which is incorporated herein by reference. The data shown in Table 1 were obtained by determining the largest normal hydrocarbon alkane which was soluble in a particular solvent at a level of 50 percent by volume. The numbers in the Table correspond with the carbon number of the largest alkane, e.g., “8” refers to octane. Measurements were made from room temperature up to the boiling point of the solvent. For comparative purposes, hydrofluorocarbons (HFCs) and perfluorocarbons (PFCs) were also tested using this method.
Using essentially the above-described method, the solvency properties of other alkoxy-substituted perfluorocompounds were tested at room temperature.

[8] = Hydrolytic stability under more severely basic conditions (aqueous KOH reflux); type: physicochemical; conditions: refluxed at 58° C. for 19 hours
Protocol: To assess hydrolytic stability under more severely basic conditions, C4F9OCH3 (125 g of 99.8% purity, 0.5 mole) was combined with potassium hydroxide ([…], dissolved in 26.1 g water) in a 250 mL flask equipped with an overhead stirrer, a condenser, and a thermometer, and the resulting solution was refluxed at 58° C. for 19 hours. Water (50 mL) was added to the solution after refluxing, and the resulting product was distilled. The lower fluorochemical phase of the resulting distillate was separated from the upper phase and was washed with water (100 mL) to yield 121.3 g of recovered C4F9OCH3, which was identical in purity and composition to the starting material (as shown by gas chromatography).

[9] = Paraffinic oil removal: solvating agent, then rinse in boiling solvent; conditions: methyl caproate/dipropylene glycol di-n-butyl ether 30 seconds, boiling rinse 30 seconds
Protocol: The above-described test coupon was dipped into a paraffinic oil comprising a mixture of linear and branched hydrocarbons (DuoSeal Pump Oil, available from Sargent Welch), was immersed in mixed solvating agent comprising approximately 50% methyl caproate and 50% dipropylene glycol di-n-butyl ether for 30 seconds, and was then rinsed in boiling alkoxy-substituted perfluorocompound for 30 seconds. The percent oil removal was determined in the above-described manner.

[10] = Stability in the presence of base: aqueous NaOAc, fluoride ion measurement; type: physicochemical; conditions: 10 g with 10 g 0.1M NaOAc, 110° C., 16 hours
Protocol: To assess hydrolytic stability, a ten gram sample of alkoxy-substituted perfluorocompound was combined with 10 g of 0.1M NaOAc and sealed in a 2.54 cm (internal diameter) by 9.84 cm Monel™ 400 alloy (66% nickel, 31.5% copper, and 1.2% iron and several minor components) tube (available from Paar Instrument Co. of Moline, Ill. as Part Number 4713cm). The tube was heated at 110° C. in a forced air convection oven for 16 hours. After cooling to room temperature, a 1 mL sample of the tube contents was diluted with 1 mL of total ionic strength adjustment buffer (TISAB, available from Orion Research, Inc., a mixture of 1,2-cyclohexylene dinitrilotetraacetic acid, deionized water, sodium acetate, sodium chloride, and acetic acid). The concentration of fluoride ion (resulting from any reaction of the perfluorocompound with the aqueous NaOAc) was measured using an Orion Model 720A Coulombmeter with a F-specific electrode which had been previously calibrated using 0.5 and 500 ppm F^− solutions. Based on the measured fluoride ion concentration, the rate at which HF had been generated by reaction of the aqueous NaOAc with the perfluorocompound was calculated.

SMILES: COC(F)(F)C(F)(F)C(F)(F)C(F)(F)F [Example C4F9OCH3, perfluorobutyl methyl ether]
- Miscibility with solute ([1]; Brayco 815Z Perfluoropolyether (MW about 10,000)): Miscible (greater than or equal to 50 percent by volume solubility at room temperature)
- Miscibility with solute ([1]; Chlorotrifluoroethylene Fluid (Inland 41 Vacuum Pump Oil)): Miscible (greater than or equal to 50 percent by volume solubility at room temperature)
- Miscibility with solute ([1]; Fomblin AM-2001 Functionalized Perfluoropolyether): Miscible (greater than or equal to 50 percent by volume solubility at room temperature)
- Percent Soil Removed [2]: 86.4%
- Percent Soil Removed [3]: 92.5%
- % Removed [4]: 99.1%
- Stability in the presence of acid ([5]; 96% sulfuric acid, 16 hours at room temperature): stable in the presence of the acid
- Stability in Presence of Acid: conversion to ester ([5]; neat ether, sulfuric acid as in Stability in the Presence of Acid section): no rxn. (0%
- Percent Soil Removed [6]: 89.9%
- Largest Carbon Number of Longest Hydrocarbon Alkane to Dissolve ([7]; 20 weight % ether, 80 % n-butyl bromide): 21
- Largest Carbon Number of Longest Hydrocarbon Alkane to Dissolve ([7]; 20 weight % ether, 80 % t-DCE): 22
- Largest Carbon Number of Longest Hydrocarbon Alkane to Dissolve ([7]; 30 weight % ether, 70 % n-butyl bromide): 21
- Largest Carbon Number of Longest Hydrocarbon Alkane to Dissolve ([7]; 50 weight % ether, 50 % n-butyl bromide): 15
- Largest Carbon Number of Longest Hydrocarbon Alkane to Dissolve ([7]; 50 weight % ether, 50 % t-DCE): 16
- Largest Carbon Number of Longest Hydrocarbon Alkane to Dissolve ([7]; 80 weight % ether, 20 % n-butyl bromide): 11
- Largest Carbon Number of Longest Hydrocarbon Alkane to Dissolve ([7]; 80 weight % ether, 20 % t-DCE): 11
- Largest Carbon Number of Longest Hydrocarbon Alkane to Dissolve ([7]; 100 weight % ether, 0 % n-butyl bromide): 9
- Largest Carbon Number of Longest Hydrocarbon Alkane to Dissolve ([7]; 100 weight % ether, 0 % t-DCE): 9
- Stability in the presence of base [8]: stable in the presence of the base
- Percent Soil Removed [9]: 99.8%
- HF Generation Rate [10]: 0.67 µg/g/h
